Common to all, as to type: functional, organism-based
Assay [1] has as its system Staphylococcus aureus. Put plainly: Antibacterial activity against small-colony variant Staphylococcus aureus isolate OM299/1 harboring -1 frame shift mutation in 687 nucleotide of menB gene by Etest method.
In assay [2] the test system is Staphylococcus aureus. Description: Antibacterial activity against Staphylococcus aureus isolate OM299/1 by Etest method.
For assay [3], the system named is Staphylococcus aureus. Description: Antibacterial activity against small-colony variant Staphylococcus aureus isolate A22616/5 harboring 55-63 nucleotide deletion in menB gene by Etest method.
The test system of assay [4] is Staphylococcus aureus. Description: Antibacterial activity against Staphylococcus aureus isolate A22616/5 by Etest method.
The test system of assay [5] is Staphylococcus aureus. Put plainly: Antibacterial activity against Staphylococcus aureus isolate OM1a by Etest method.
In assay [6] the test system is Staphylococcus aureus. Description: Antibacterial activity against small-colony variant Staphylococcus aureus isolate OM1b harboring menB G698T Gly233Val mutant gene by Etest method.
In assay [7] the test system is Staphylococcus aureus. Put plainly: Antibacterial activity against phenotypic revertant Staphylococcus aureus OM1b:F2 harboring G698C Val233Ala compensatory mutation in menB gene by Etest method.
In assay [8] the test system is Staphylococcus aureus. Put plainly: Antibacterial activity against wild type Staphylococcus aureus OM1b:F5 phenotypic revertant by Etest method.
Assay [9] deals with Staphylococcus aureus. Put plainly: Antibacterial activity against phenotypic revertant Staphylococcus aureus OM1b:F8 harboring 694-702 nucleotide deletion in menB gene by Etest method.
In assay [10] the test system is Staphylococcus aureus. Put plainly: Antibacterial activity against phenotypic revertant Staphylococcus aureus OM1b:F9 harboring G698T/Gly233Val and compensatory A776T/Lys259Ile mutant menB gene by Etest method.

GENTAMICIN: the MIC in [1] came out at 16 mg/L; in assay [2], 0.32 mg/L; in assay [3], 12 mg/L; in assay [4], 0.19 mg/L; in assay [5] it was 0.125 mg/L; in assay [6], 8 mg/L. In addition, the MIC in [7], in assay [8], in [9] and in [10] was 0.125 mg/L in each case.

The record behind these values is ChEMBL document CHEMBL1275551, “Identification of the genetic basis for clinical menadione-auxotrophic small-colony variant isolates of Staphylococcus aureus” (Antimicrob Agents Chemother, 2008).
